Test results reported in patent publication US20230003718A1, “METHODS FOR ASSESSING RATES OF DNA REPAIR” (The Johns Hopkins University, priority 2021, published 2023).
Entries after “also recorded” stand apart in the source; their conditions may differ. Where two headings read alike, the source gives them in different places.

Experiments:
Assay type in all cases: cell-based
[1] = system: non-homologous end joining (NHEJ) repair of Cas9 DSB in HEK293FT cells; test: RepairSwitch assay, rate of NHEJ (loss of EGFP, flow cytometry); details: dose range 1 nm to 10 uM
Protocol: (§1) All cell lines were plated in 12-well plates at 2.5E5 cells/well in their respective growth mediums. The growth medium was then replaced after 24-48 hours and the cells were transfected with lug of CRISPR/Cas9 gRNA construct, lug of HR repair template, or both gRNA and HR repair template (2 ug total) in combination using FuGENE HD (Promega) at a FuGENE to DNA ratio of 3:1. The DNA was mixed with Opti-MEM (50 ul Opti-MEM/ug DNA) and FuGENE was added for an incubation period of 15 minutes before being added dropwise to the well. If drug is being utilized, cells are dosed immediately prior to transfection. Fresh growth medium was replaced every 48-72 hours. Cells were kept in culture for 1 week before assessment of fluorescence via flow cytometry.
(§2) All drugs were dissolved in DMSO as per Selleck instructions. For cell-based work drugs were diluted to a final concentration of 0.001% DMSO. All drugs were given in a dose range of 1 nm to 10 uM, unless toxicity was shown in Incucyte proliferation assays (S1, S2).
Medium was removed from 12-well plates and cells were detached from plate using TrypLE Express. FBS containing medium was used to neutralize TrypLE Express and cells were collected and spun down at 1000 RPM for 5 min. […] For each sample, 10,000-30,000 high DsRed expressing cells were counted depending on sample concentration, and assessed for both EGFP and BFP expression. […]
(§3) The RepairSwitch assay was developed to measure the balance of HR- and NHEJ-mediated double-strand break (DSB) repair. […] In this system, the resulting fluorescence, post CRISPR/Cas9 cutting at the target locus, is dependent on the method of repair. […] Either, the EGFP fluorescence will be extinguished due to the error prone repair, or it is possible for the EGFP protein to be repaired correctly or with a silent mutation via NHEJ, thereby producing a viable fluorescent signal. […] A schematic of the RepairSwitch assay readout (FIG. 1B) provides a concise overview of the possible fluorescent outcomes and their respective implications.

[2] = system: homologous recombination (HR) repair of Cas9 DSB in HEK293FT cells; test: RepairSwitch assay, rate of HR (EGFP to BFP switch, flow cytometry); details: for IC50: RepairSwitch, 1 week after transfection, read-out: IC50 for inhibition of HR rate; for Effect on rate of HR: dose range 1 nm to 10 uM
Protocol: as §1, §2
(§4) Medium was removed from 12-well plates and cells were detached from plate using TrypLE Express. FBS containing medium was used to neutralize TrypLE Express and cells were collected and spun down at 1000 RPM for 5 min. Cell pellets were then washed with PBS twice before resuspension in 500 ul PBS and put on ice. Prior to flow of each sample, cells were resuspended and put through a cell-strainer cap on the flow tube. Cells were gated to ensure single cell population as well as high DsRed expression. For each sample, 10,000-30,000 high DsRed expressing cells were counted depending on sample concentration, and assessed for both EGFP and BFP expression. FlowJo was utilized to analyze all flow cytometry results and to produce statistics on each population.
Graphpad Prism was utilized to visualize statistical results from FlowJo. Additionally, it was utilized to provide statistical analyses of p value using unpaired t-tests.
The RepairSwitch assay was developed to measure the balance of HR- and NHEJ-mediated double-strand break (DSB) repair. To accomplish this, it was necessary to design assay vectors that could be lenti-virally transduced into cells and would thereby be incorporated into the genome. […] Additionally, it allowed DsRed to serve as a transduction control to ensure vector integration at an MOI of 0.3, while EGFP served as a target for CRISPR/Cas9 induced DSB. […] Additionally, in conjunction with the administration of the CRISPR/Cas9 EGFP gRNA, exogenous single stranded DNA oligos were administered in excess and act as the repair template. In this system, the resulting fluorescence, post CRISPR/Cas9 cutting at the target locus, is dependent on the method of repair. Upon utilization of the repair template in repair via homologous recombination (HR) the resulting locus will be converted from EGFP to BFP. This is possible due to the sequence similarity of these fluorescent proteins, which differ in only two bases, resulting in the substitution of two adjacent amino acids. […] Either, the EGFP fluorescence will be extinguished due to the error prone repair, or it is possible for the EGFP protein to be repaired correctly or with a silent mutation via NHEJ, thereby producing a viable fluorescent signal. […] A schematic of the RepairSwitch assay readout (FIG. 1B) provides a concise overview of the possible fluorescent outcomes and their respective implications.

[3] = system: homologous recombination (HR) repair of Cas9 DSB in HCT116 cells; test: cells; details: for Effect on rate of HR: HCT116 cells
Protocol: (§5) All cell lines were plated in 12-well plates at 2.5E5 cells/well in their respective growth mediums. […]. The DNA was mixed with Opti-MEM (50 ul Opti-MEM/ug DNA) and FuGENE was added for an incubation period of 15 minutes before being added dropwise to the well. If drug is being utilized, cells are dosed immediately prior to transfection. Fresh growth medium was replaced every 48-72 hours. Cells were kept in culture for 1 week before assessment of fluorescence via flow cytometry.
(§6) All compounds used can be found listed in Table 1, and all were purchased from Selleck. All drugs were dissolved in DMSO as per Selleck instructions. […].
as §4
Graphpad Prism was utilized to visualize statistical results from FlowJo. […]
as §3

[4] = system: non-homologous end joining (NHEJ) repair of Cas9 DSB in HCT116 cells; test: RepairSwitch assay, rate of NHEJ (loss of EGFP, flow cytometry)
Protocol: as §5, §6
Medium was removed from 12-well plates and cells were detached from plate using TrypLE Express. […] For each sample, 10,000-30,000 high DsRed expressing cells were counted depending on sample concentration, and assessed for both EGFP and BFP expression. […]
The RepairSwitch assay was developed to measure the balance of HR- and NHEJ-mediated double-strand break (DSB) repair. […] In this system, the resulting fluorescence, post CRISPR/Cas9 cutting at the target locus, is dependent on the method of repair. […] Either, the EGFP fluorescence will be extinguished due to the error prone repair, or it is possible for the EGFP protein to be repaired correctly or with a silent mutation via NHEJ, thereby producing a viable fluorescent signal. […]

| Compound | Effect on rate of NHEJ [1] | IC50 [2] [nM] | Effect on rate of HR [2] | Effect on rate of HR [3] | Effect on rate of HR ([3]; listed as decitabine) | IC50 ([3]; Homo sapiens, HCT-116, read-out: IC50 for inhibition of HR rate) [nM] | Effect on rate of NHEJ ([1]; listed as decitabine) | IC50 ([2]; 168 h) [nM] | Effect on rate of HR ([2]; listed as decitabine) | Effect on rate of NHEJ [4] | Effect on rate of NHEJ ([4]; listed as decitabine) |
| --- | --- | --- | --- | --- | --- | --- | --- | --- | --- | --- | --- |
| Olaparib | lower potency in modulating HR and NHEJ; also recorded: subtle increase in the rates of NHEJ | 739 | lower potency in modulating HR and NHEJ; also recorded: subtle reduction in rates of HR | – | – | – | – | – | – | – | – |
| Nc1ncn([C@H]2C[C@H](O)[C@@H](CO)O2)c(=O)n1 [Decitabine] | compensatory increase in the rates of NHEJ | – | dose responsive decrease in the rates of HR | also consistent in HCT116 cells | reduced HR | 1400 | increased rates of NHEJ | 187 | reduced HR | also consistent in HCT116 cells | increased rates of NHEJ |
